Measured values from paper PMC12389534, “Unlocking Therapeutic Potential of Novel Thieno-Oxazepine Hybrids as Multi-Target Inhibitors of AChE/BChE and Evaluation Against Alzheimer’s Disease: In Vivo, In Vitro, Histopathological, and Docking Studies” (Pharmaceuticals, 2025).

How the values were obtained:
[1] = system: HO-1; test: HO-1 mRNA expression (RT-qPCR); assay type: in vivo, rat; conditions: AlCl3-induced AD rats; for HO-1: mRNA expression in brain tissue, mean ± SE, n = 6
Procedure: (§1) The brain tissues of the rats were removed and rigorously washed in isotonic saline 24 h after they were euthanized following the last behavioral test. For histological investigation, four brains per group were preserved for the whole night in 10% neutral buffered formalin. The remaining six brains were split into two sections each. In order to create a 10% homogenate (w/v), the first component was instantaneously homogenized using an ice-cold solution that included 300 mM sucrose and 50 mM Tris-HCl (pH 7.4). The homogenate was centrifuged at 1800× g for 10 min at 4 °C for biochemical tests, and the supernatant was thereafter kept at −20 °C. The second portion was set aside for use in RT-PCR analysis at −80 °C [94].
(§2) See Supplementary Information.

[2] = system: AChE; assay type: in vivo; set-up: reduction in AChE levels: concentration or dose not given beside the values; conditions: AlCl3-induced AD rats; for AChE (ng/g Tissue): brain tissue, mean ± SE, n = 6; for reduction in AChE levels: brain
[3] = system: Bcl-2; test: Bcl-2 gene expression (RT-qPCR); assay type: in vivo, rat; conditions: AlCl3-induced AD rats; for Bcl-2: gene expression, mean ± SE, n = 6
Procedure: as §1, §2

[4] = system: Wnt3a; test: Brain Wnt3a level; assay type: in vivo, rat; conditions: AlCl3-induced AD rats; for Wnt3a (ng/g Tissue): mean ± SE, n = 6
Procedure: as §1, §2

[5] = target: T1, AChE (Homo sapiens, UniProt P22303); test: biochemical; conditions: colorimetric kit, 412 nm
T1 construct: purchased BioVision K197-100
Procedure: All newly created compounds were subjected to an AChE enzyme inhibitory screening. This was performed with the Colorimetric AChE Inhibitor Screening Kit (BioVision Catalog # K197-100). The 96-well assay kit provides a rapid, simple, and reliable way to screen for AChE inhibitors in large quantities. […] A completely transparent 96-well plate with a flat bottom was loaded with 10 µL of test inhibitors that were diluted (20×). […] A measure of 10 μL of diluted AChE was applied to each well that contained compounds, inhibitor control, and solvent control. […] Measures of 25 μL of AChE assay buffer, 5 μL of probe mix, and 10 μL of diluted AChE substrate were mixed to create the reaction mix. The reaction mix was mixed with the compound, enzyme control, and inhibitor control. […] The IC50 was calculated using nonlinear regression analysis using the response–concentration (log) curve.

[6] = system: DA; test: Brain DA level (fluorometric); assay type: in vivo, rat; conditions: AlCl3-induced AD rats; for DA (ng/g Tissue): brain tissue, mean ± SE, n = 6
Procedure: as §1
(§3) Brain monoamine levels were promptly assessed following the rats’ euthanasia to prevent changes in the substance’s concentration. Dopamine (DA), norepinephrine (NE), and serotonin (5-HT) fluorometric tests were conducted on brain tissue homogenate using the Ciarlone method. […] The concentrations were articulated as nanograms per gram of fresh tissue using the fluorescence of reference solutions [95].

[7] = system: SOD; test: Brain SOD activity (colorimetric); assay type: in vivo, rat; conditions: brain tissue, AlCl3-induced AD rats; mean ± SE, n = 6
Procedure: as §1
(§4) The SOD enzyme activity was estimated using the Marklund et al. method, which is founded on the enzyme’s capacity to decrease the nitro blue tetrazolium dye at a wavelength of 540 nm. To evaluate the TAC, a colorimetric approach was employed to estimate the amount of hydrogen peroxide that remains after 3,5-dichloro-2-hydroxybenzene sulphonate is converted to a colored product at 660 nm.

[8] = system: Nrf-2; test: Nrf-2 mRNA expression (RT-qPCR); assay type: in vivo, rat; conditions: AlCl3-induced AD rats; for Nrf-2: mRNA expression in brain tissue, mean ± SE, n = 6
Procedure: as §1, §2

[9] = system: BAX; test: BAX gene expression (RT-qPCR); assay type: in vivo, rat; conditions: gene expression; AlCl3-induced AD rats; mean ± SE, n = 6
Procedure: as §1, §2

[10] = system: TAC; test: Brain TAC (colorimetric); assay type: in vivo, rat; conditions: AlCl3-induced AD rats; for TAC (µmol/g Tissue): brain tissue, mean ± SE, n = 6
Procedure: as §1, §4

[11] = system: BAX/Bcl-2; test: BAX/Bcl-2 ratio of gene expression; assay type: in vivo, rat; conditions: AlCl3-induced AD rats
Procedure: as §1, §2

[12] = system: GSK3β; test: GSK3β gene expression (RT-qPCR); assay type: in vivo, rat; conditions: AlCl3-induced AD rats; for GSK3β: gene expression, mean ± SE, n = 6
Procedure: as §1, §2

[13] = system: β-catenin; test: Brain β-catenin level; assay type: in vivo, rat; conditions: AlCl3-induced AD rats; for β-Catenin (ng/L): mean ± SE, n = 6
Procedure: as §1, §2

[14] = system: MDA; test: Brain MDA content (thiobarbituric acid method); assay type: in vivo, rat; set-up: reduction in MDA brain content: concentration or dose not given beside the values; conditions: AlCl3-induced AD rats; for MDA (nmol/g Tissue): brain tissue, mean ± SE, n = 6
[15] = system: NE; test: Brain NE level (fluorometric); assay type: in vivo, rat; conditions: AlCl3-induced AD rats; for NE (nmol/g Tissue): brain tissue, mean ± SE, n = 6
Procedure: as §1, §3

[16] = system: TNF-α; test: Brain TNF-α level (ELISA); assay type: in vivo, rat; conditions: AlCl3-induced AD rats; for TNF-α (pg/g Tissue): mean ± SE, n = 6
Procedure: as §1, with “[94]. […]” for “[94].”

T1 sequence (P22303 32-614): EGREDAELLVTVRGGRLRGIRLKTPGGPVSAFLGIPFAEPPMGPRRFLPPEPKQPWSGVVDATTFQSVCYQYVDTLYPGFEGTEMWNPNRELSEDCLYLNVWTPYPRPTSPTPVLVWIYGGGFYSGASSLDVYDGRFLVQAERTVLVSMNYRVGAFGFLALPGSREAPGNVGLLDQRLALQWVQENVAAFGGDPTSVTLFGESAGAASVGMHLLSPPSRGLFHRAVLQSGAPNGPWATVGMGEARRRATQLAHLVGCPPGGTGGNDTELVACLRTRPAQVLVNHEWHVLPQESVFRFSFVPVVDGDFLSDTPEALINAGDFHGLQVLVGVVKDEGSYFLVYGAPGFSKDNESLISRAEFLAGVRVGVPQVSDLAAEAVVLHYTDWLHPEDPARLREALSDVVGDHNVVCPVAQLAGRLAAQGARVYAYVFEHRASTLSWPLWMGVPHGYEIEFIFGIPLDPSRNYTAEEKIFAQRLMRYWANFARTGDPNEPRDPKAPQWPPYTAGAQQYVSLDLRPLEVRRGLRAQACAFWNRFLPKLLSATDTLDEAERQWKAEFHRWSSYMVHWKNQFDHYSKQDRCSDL

SMILES | elevation of HO-1 mRNA expression [1] [fold] | HO-1 [1] | AChE (ng/g Tissue) [2] | reduction in AChE levels [2] [%] | upregulation of Bcl-2 gene expression [3] [fold] | Bcl-2 [3] | elevation of Wnt3a levels [4] [fold] | Wnt3a (ng/g Tissue) [4] | IC50 [5] [µM] | elevation of DA levels [6] [fold] | DA (ng/g Tissue) [6] | SOD(U/g) [7] | elevation of Nrf-2 mRNA expression [8] [fold] | Nrf-2 [8] | BAX [9] | improvement of TAC levels [10] [times] | TAC (µmol/g Tissue) [10] | BAX/Bcl-2 Ratio [11] | GSK3β [12] | elevation of β-catenin levels [13] [fold] | other results
N#Cc1ccc(N2CC(=O)Oc3sc4c(c3C2=O)CCCCC4)cc1 [Compound 13, 4-(2,5-Dioxo-2,3,7,8,9,10-hexahydro-6H-cyclohepta[4,5]thieno[3,2-f][1,4]oxazepin-4(5H)-yl)benzonitrile] | 6.2 | 0.75 ± 0.010 ^abc | 24.35 ± 0.8 ^abc ng/g Tissue | 63.8 | 6.5 | 0.79 ± 0.020 ^abc | 7 | 0.84 ± 0.01 ^abc ng/g Tissue | 5.04 ± 0.17 | 4.1 | 48.65 ± 2.3 ^abc ng/g Tissue | 2.53 ± 0.25 ^abc U/g | 4.8 | 0.78 ± 0.010 ^abc | 5.80 ± 0.120 ^abc | ~3.4 | 32.9 ± 1.22 ^abc µmol/g Tissue | 7.34 | 3.63 ± 0.04 ^abc | 7.7 | β-Catenin (ng/L) [13]: 11.67 ± 0.13 ^abc ng/L; reduction in MDA brain content [14]: 54.7%; MDA (nmol/g Tissue) [14]: 52.58 ± 0.08 ^abc nmol/g Tissue; rise in the level of NE [15]: 2.4 times; NE (nmol/g Tissue) [15]: 449.6 ± 2.3 ^abc nmol/g Tissue; decline in TNF-α levels [16]: 70.2%; TNF-α (pg/g Tissue) [16]: 52.38 ± 0.59 ^abc pg/g Tissue
CCOc1ccc(N2CC(=O)Oc3sc4c(c3C2=O)CCCCC4)cc1 [Compound 14, 4-(4-Ethoxyphenyl)-3,4,7,8,9,10-hexahydro-6H-cyclohepta[4,5]thieno[3,2-f][1,4]oxazepine-2,5-dione] | 5.3 | 0.64 ± 0.009 ^abc | 19.4 ± 0.39 ^abc ng/g Tissue | 71.2 | 5.8 | 0.70 ± 0.004 ^abc | 4 | 0.66 ± 0.02 ^abc ng/g Tissue | 0.39 ± 0.01 | 4.3 | 51.88 ± 2.66 ^abc ng/g Tissue | 2.38 ± 0.78 ^abc U/g | 3.1 | 0.50 ± 0.020 ^abc | 5.49 ± 0.100 ^abc | 3.8 | 36.96 ± 0.51 ^abc µmol/g Tissue | 7.84 | 3.13 ± 0.07 ^abc | 5.3 | β-Catenin (ng/L) [13]: 8.4 ± 0.09 ^abc ng/L; reduction in MDA brain content [14]: 59%; MDA (nmol/g Tissue) [14]: 47.6 ± 0.12 ^abc nmol/g Tissue; rise in the level of NE [15]: 2.1 times; NE (nmol/g Tissue) [15]: 386.7 ± 2.66 ^abc nmol/g Tissue; decline in TNF-α levels [16]: 58.4%; TNF-α (pg/g Tissue) [16]: 73.21 ± 0.58 ^abc pg/g Tissue
O=C1CN(c2ccc(O)cc2)C(=O)c2c(sc3c2CCCCC3)O1 [Compound 15, 4-(4-Hydroxyphenyl)-3,4,7,8,9,10-hexahydro-6H-cyclohepta[4,5]thieno[3,2-f][1,4]oxa-zepine-2,5-dione] | 6.7 | 0.82 ± 0.005 ^abc | 25.73 ± 0.37 ^abc ng/g Tissue | 61.8 | 7.1 | 0.86 ± 0.020 ^abc | 7.3 | 0.88 ± 0.01 ^abc ng/g Tissue | 1.59 ± 0.06 | 3.8 | 44.92 ± 2.85 ^abc ng/g Tissue | 2.56 ± 0.54 ^abc U/g | 5.1 | 0.82 ± 0.020 ^abc | 4.47 ± 0.040 ^abc | ~3.3 | 31.67 ± 0.42 ^abc µmol/g Tissue | 5.20 | 4.72 ± 0.05 ^abc | 8.8 | reduction of GSK3β gene expression [12]: 53.7%; β-Catenin (ng/L) [13]: 13.86 ± 0.11 ^abc ng/L; reduction in MDA brain content [14]: 45.2%; MDA (nmol/g Tissue) [14]: 63.68 ± 0.12 ^abc nmol/g Tissue; rise in the level of NE [15]: 2.7 times; NE (nmol/g Tissue) [15]: 499.8 ± 2.85 ^abc nmol/g Tissue; decline in TNF-α levels [16]: 74.6%; TNF-α (pg/g Tissue) [16]: 44.6 ± 0.6 ^abc pg/g Tissue
